Laboratory results reported in US11051515B2, “3-acyl-benzamides and their use as herbicides” (Bayer Aktiengesellschaft, priority 2017, dated 2021).

Tests used:
HORMU [1] = assay: Pre-emergence action against HORMU; assay type: in vivo, Hordeum murinum; conditions: Hordeum murinum, 504 h, Dosage 320 g/ha
Method in brief: (§1)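 Seeds sown in sandy loam in wood-fiber pots and covered with soil. Greenhouse growth; visual damage scored after 3 weeks versus untreated controls (100% = dead, 0% = like control).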

LOLRI [2] = assay: Pre-emergence action against LOLRI; assay type: in vivo, Lolium rigidum; conditions: Lolium rigidum, 504 h, dosage 320 g/ha, scored visually after 3 weeks vs untreated controls, read-out: Pre-emergence action against LOLRI (herbicidal activity)
Method in brief: as §1

DIGSA [3] = assay: Pre-emergence action against DIGSA; assay type: in vivo, Digitaria sanguinalis; conditions: dosage 320 g/ha, scored visually after 3 weeks vs untreated controls
Method in brief: as §1

STEME = assay: Post-emergence action against STEME; assay type: in vivo, Stellaria media; conditions: for pest or weed control at 80 g/ha: Stellaria media, 504 h, post-emergence, dosage 80 g/ha
Method in brief: (§2)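 Post-emergence foliar spray on greenhouse plants at the one-leaf stage, using wettable-powder or emulsion-concentrate formulations in water (600 to […], plus 0.2% wetting agent). Damage scored by eye roughly 3 weeks later against untreated plants: 0% = like control, 100% = dead.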

LOLRI [4] = assay: Post-emergence action against LOLRI; assay type: in vivo, Lolium rigidum; conditions: Lolium rigidum, 504 h, dosage 80 g/ha, visual assessment about 3 weeks after treatment vs untreated controls, read-out: Post-emergence action against LOLRI (herbicidal action in percent)
Method in brief: as §2

AVEFA [5] = assay: Post-emergence action against AVEFA; assay type: in vivo, Avena fatua; conditions: for pest or weed control at 80 g/ha: Avena fatua, 504 h, post-emergence, dosage 80 g/ha, visual assessment about 3 weeks after treatment vs untreated controls, read-out: Post-emergence action against AVEFA (herbicidal action in percent)
Method in brief: as §2

AVEFA [6] = assay: Pre-emergence action against AVEFA; assay type: in vivo, Avena fatua; conditions: Avena fatua, 504 h, dosage 320 g/ha, scored visually after 3 weeks vs untreated controls, read-out: Pre-emergence action against AVEFA (herbicidal activity)
Method in brief: as §1

POLCO = assay: Pre-emergence action against POLCO; assay type: in vivo, Polygonum convolvulus; conditions: for pest or weed control at 320 g/ha: Fallopia convolvulus, 504 h, Dosage 320 g/ha, pre-emergence; for Herbicidal efficacy against POLCO: 80 g of a.i./ha
Method in brief: as §1

VERPE = assay: Pre-emergence action against VERPE; assay type: in vivo, Veronica persica; conditions: for pest or weed control at 320 g/ha: Veronica persica, 504 h, Dosage 320 g/ha, pre-emergence
Method in brief: as §1

ABUTH = assay: Pre-emergence action against ABUTH; assay type: in vivo, Abutilon theophrasti; conditions: for pest or weed control at 320 g/ha: Abutilon theophrasti, 504 h, pre-emergence, dosage 320 g/ha, scored visually after 3 weeks vs untreated controls, read-out: Pre-emergence action against ABUTH (herbicidal activity)
Method in brief: as §1

DIGSA [7] = assay: Post-emergence action against DIGSA; assay type: in vivo, Digitaria sanguinalis; conditions: dosage 80 g/ha, visual assessment about 3 weeks after treatment vs untreated controls
Method in brief: as §2

VIOTR = assay: Post-emergence action against VIOTR; assay type: in vivo, Viola tricolor; conditions: for pest or weed control at 80 g/ha: Viola tricolor, 504 h, post-emergence, dosage 80 g/ha
Method in brief: as §2

HORMU [8] = assay: Post-emergence action against HORMU; assay type: in vivo, Hordeum murinum; conditions: dosage 80 g/ha
Procedure: Seeds of monocotyledonous and dicotyledonous weed and crop plants are laid out in sandy loam soil in wood-fiber pots, covered with soil and cultivated in a greenhouse under good growth conditions. 2 to 3 weeks after sowing, the test plants are treated at the one-leaf stage. The compounds of the invention, formulated in the form of wettable powders (WP) or as emulsion concentrates (EC), are then sprayed onto the green parts of the plants in the form of an aqueous suspension or emulsion at a water application rate equating to […], with addition of 0.2% wetting agent. After the test plants have been left to stand in the greenhouse under optimal growth conditions for about 3 weeks, the action of the preparations is assessed visually in comparison to untreated controls (herbicidal action in percent (%): 100% activity=the plants have died, 0% activity=like control plants). […] At the same time, inventive compounds leave Gramineae crops such as barley, wheat, rye, millet/Sorghum, corn or rice virtually undamaged when applied post-emergence, even at high active ingredient dosages. In addition, some substances are also harmless to dicotyledonous crops such as soya, cotton, oilseed rape, sugar beet or potatoes. Some of the compounds according to the invention have high selectivity and are therefore suitable for controlling unwanted vegetation in agricultural crops by the post-emergence method. The data of Tables B18 to B34 below illustrate, in an exemplary manner, the […] herbicidal action of the compounds according to the invention, the herbicidal activity being stated in percent.

LOLMU [9] = assay: Pre-emergence action against LOLMU; assay type: in vivo, Lolium multiflorum; conditions: Lolium multiflorum, 504 h, dosage 320 g/ha, scored visually after 3 weeks vs untreated controls, read-out: Pre-emergence action against LOLMU (herbicidal activity)
Method in brief: as §1

LOLMU [10] = assay: Post-emergence action against LOLMU; assay type: in vivo, Lolium multiflorum; conditions: Lolium multiflorum, 504 h, dosage 80 g/ha, visual assessment about 3 weeks after treatment vs untreated controls, read-out: Post-emergence action against LOLMU (herbicidal action in percent)
Method in brief: as §2

[11] = Table V3, pre-emergence, 80 g of a.i./ha
[12] = Table V18, post-emergence, 20 g of a.i./ha
[13] = Table V4, pre-emergence, 20 g of a.i./ha

Row | SMILES | pest or weed control at 80 g/ha (STEME) [%] | pest or weed control at 80 g/ha (AVEFA [5]) [%] | pest or weed control at 320 g/ha (AVEFA [6]) [%] | pest or weed control at 320 g/ha (POLCO) [%] | pest or weed control at 320 g/ha (VERPE) [%] | pest or weed control at 320 g/ha (ABUTH) [%] | pest or weed control at 80 g/ha (VIOTR) [%] | pest or weed control at 320 g/ha (LOLMU [9]) [%] | pest or weed control at 80 g/ha (LOLMU [10]) [%] | other results
1 | CCCC(=O)c1c(C(F)(F)F)ccc(C(=O)Nc2nnnn2C)c1C [1-16] | 100 | 90 | 90 | 80 | 100 | 100 | 100 |  |  | pest or weed control at 320 g/ha (HORMU [1]): 90%; pest or weed control at 320 g/ha (LOLRI [2]): 100%; Pre-emergence action against DIGSA (herbicidal activity) (DIGSA [3]): 100%; pest or weed control at 80 g/ha (LOLRI [4]): 80%; Post-emergence action against DIGSA (herbicidal action in percent) (DIGSA [7]): 90%
2 | CC(=O)c1c(I)ccc(C(=O)Nc2nnnn2C)c1Cl [1-192] |  | 80 | 100 | 80 |  | 100 | 100 |  |  | pest or weed control at 320 g/ha (HORMU [1]): 100%; pest or weed control at 320 g/ha (LOLRI [2]): 100%; Post-emergence action against HORMU (HORMU [8]): 100; pest or weed control at 80 g/ha (LOLRI [4]): 100%
3 | Cn1nnnc1NC(=O)c1ccc(C(F)(F)F)c(C(=O)C2CC2)c1Cl [1-141] | 100 | 100 | 100 | 80 | 100 | 100 | 100 | 100 | 100 | 
4 | Cn1nnnc1NC(=O)c1ccc(S(C)(=O)=O)c(C(=O)C2CC2)c1Cl [1-129] | 100 | 100 | 100 | 80 | 100 | 100 | 100 | 100 | 80 | Herbicidal efficacy against AVEFA (AVEFA [5]; Table V15, post-emergence, 5 g of a.i./ha): 60; VERPE (VERPE; Table V2, pre-emergence, 20 g of a.i./ha): 100; Herbicidal efficacy against ABUTH (ABUTH; [11]): 100
5 | Cc1c(C(=O)Nc2nnnn2C)ccc(S(C)(=O)=O)c1C(=O)C1CC1 [1-9] | 100 | 100 | 80 |  |  | 100 | 100 |  | 90 | Herbicidal efficacy against STEME (STEME; [12]): 100; Herbicidal efficacy against AVEFA (AVEFA [5]; [12]): 80; Herbicidal efficacy against POLCO (POLCO; Table V6, pre-emergence): 40; Herbicidal efficacy against ABUTH (ABUTH; Table V7, pre-emergence, 20 g of a.i./ha): 100; Herbicidal efficacy against VIOTR (VIOTR; Table V17, post-emergence, 5 g of a.i./ha): 100
6 | CC(=O)c1c(C(F)(F)F)ccc(C(=O)Nc2nnnn2C)c1Cl [1-137, 3-acetyl-2-chloro-N-(1-methyl-1H-tetrazol-5-yl)-4-(trifluoromethyl)benzamide] | 100 | 100 | 100 | 100 | 100 | 100 | 100 | 100 | 100 | 
7 | CC(=O)c1c(S(C)(=O)=O)ccc(C(=O)Nc2nnnn2C)c1Cl [1-127] | 90 | 80 | 90 | 90 | 100 | 100 | 100 | 80 |  | Herbicidal efficacy against POLCO (POLCO; Table V1, pre-emergence): 70; Herbicidal efficacy against VERPE (VERPE; [13]): 90; Herbicidal efficacy against ABUTH (ABUTH; [11]): 100; Herbicidal efficacy against ABUTH (ABUTH; [13]): 90; Herbicidal efficacy against VIOTR (VIOTR; Table V16, post-emergence, 5 g of a.i./ha): 100; Herbicidal efficacy against VIOTR (VIOTR; Table V16, post-emergence, 20 g of a.i./ha): 100
